Source: US11572590B2, “Methods for evaluating tumor cell spheroids using 3D microfluidic cell culture device” (Dana-Farber Cancer Institute, Inc., priority 2017, dated 2023)
Like-named read-outs stand apart in the source and are kept apart here.

Tests used:
Experiment in all cases: SelectScreen Kinase Profiling, single point inhibition and IC50 for off-target kinases
Assay type in all cases: biochemical
[1] = target: T1, off-target kinases (Homo sapiens, UniProt Q15139); details: PRKD1 (PKC mu), ATP Km app, ZLYTE
T1 sequence (Q15139 1-912): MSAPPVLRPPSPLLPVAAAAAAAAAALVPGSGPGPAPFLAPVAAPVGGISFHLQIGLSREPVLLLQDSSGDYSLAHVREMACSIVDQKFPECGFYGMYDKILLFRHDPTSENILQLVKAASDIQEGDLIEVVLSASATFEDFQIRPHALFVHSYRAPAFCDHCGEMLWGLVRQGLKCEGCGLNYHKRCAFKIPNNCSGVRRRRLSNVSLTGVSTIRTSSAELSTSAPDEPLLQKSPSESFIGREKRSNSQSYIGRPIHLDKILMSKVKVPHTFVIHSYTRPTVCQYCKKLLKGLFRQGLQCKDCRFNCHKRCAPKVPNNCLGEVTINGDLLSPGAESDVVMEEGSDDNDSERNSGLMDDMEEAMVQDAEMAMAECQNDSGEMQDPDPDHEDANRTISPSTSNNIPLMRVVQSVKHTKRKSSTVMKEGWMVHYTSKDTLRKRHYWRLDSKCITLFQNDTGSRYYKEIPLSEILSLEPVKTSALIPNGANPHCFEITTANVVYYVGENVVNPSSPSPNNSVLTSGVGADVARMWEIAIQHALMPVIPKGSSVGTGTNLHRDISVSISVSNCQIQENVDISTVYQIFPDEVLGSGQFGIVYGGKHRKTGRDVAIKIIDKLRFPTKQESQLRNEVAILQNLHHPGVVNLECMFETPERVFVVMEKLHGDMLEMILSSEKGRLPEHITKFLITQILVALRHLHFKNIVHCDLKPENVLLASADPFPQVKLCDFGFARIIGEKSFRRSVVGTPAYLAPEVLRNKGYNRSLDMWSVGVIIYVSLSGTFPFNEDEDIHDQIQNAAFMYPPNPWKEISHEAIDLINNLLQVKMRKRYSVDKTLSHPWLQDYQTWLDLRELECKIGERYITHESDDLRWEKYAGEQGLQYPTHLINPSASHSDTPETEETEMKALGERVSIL

[2] = target: off-target kinases (Homo sapiens, UniProt P07949, M918T); details: RET M918T, mutant y, LanthaScreen Binding
[3] = target: off-target kinases (Homo sapiens, UniProt Q8N4C8); details: MINK1, ATP Km app, ZLYTE
[4] = target: T2, off-target kinases (Homo sapiens, UniProt Q9UQB9); details: AURKC (Aurora C), ZLYTE, ATP Km app
T2 sequence (Q9UQB9 1-309): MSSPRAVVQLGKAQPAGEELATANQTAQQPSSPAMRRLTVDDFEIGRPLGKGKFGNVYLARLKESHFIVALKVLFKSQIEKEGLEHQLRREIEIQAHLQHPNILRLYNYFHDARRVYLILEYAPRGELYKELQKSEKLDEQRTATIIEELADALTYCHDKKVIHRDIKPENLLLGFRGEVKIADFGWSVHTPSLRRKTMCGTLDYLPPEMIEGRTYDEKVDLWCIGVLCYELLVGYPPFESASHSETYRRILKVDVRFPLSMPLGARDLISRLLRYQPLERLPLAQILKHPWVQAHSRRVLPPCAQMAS

[5] = target: off-target kinases (Homo sapiens, UniProt O60674); details: ATP Km app, ZLYTE
[6] = target: off-target kinases (Homo sapiens, UniProt P07949, V804M); details: RET V804M, mutant y, LanthaScreen Binding
off-target kinases (Homo sapiens, UniProt P07949, V804M), sequence (P07949 29-1114 V804M): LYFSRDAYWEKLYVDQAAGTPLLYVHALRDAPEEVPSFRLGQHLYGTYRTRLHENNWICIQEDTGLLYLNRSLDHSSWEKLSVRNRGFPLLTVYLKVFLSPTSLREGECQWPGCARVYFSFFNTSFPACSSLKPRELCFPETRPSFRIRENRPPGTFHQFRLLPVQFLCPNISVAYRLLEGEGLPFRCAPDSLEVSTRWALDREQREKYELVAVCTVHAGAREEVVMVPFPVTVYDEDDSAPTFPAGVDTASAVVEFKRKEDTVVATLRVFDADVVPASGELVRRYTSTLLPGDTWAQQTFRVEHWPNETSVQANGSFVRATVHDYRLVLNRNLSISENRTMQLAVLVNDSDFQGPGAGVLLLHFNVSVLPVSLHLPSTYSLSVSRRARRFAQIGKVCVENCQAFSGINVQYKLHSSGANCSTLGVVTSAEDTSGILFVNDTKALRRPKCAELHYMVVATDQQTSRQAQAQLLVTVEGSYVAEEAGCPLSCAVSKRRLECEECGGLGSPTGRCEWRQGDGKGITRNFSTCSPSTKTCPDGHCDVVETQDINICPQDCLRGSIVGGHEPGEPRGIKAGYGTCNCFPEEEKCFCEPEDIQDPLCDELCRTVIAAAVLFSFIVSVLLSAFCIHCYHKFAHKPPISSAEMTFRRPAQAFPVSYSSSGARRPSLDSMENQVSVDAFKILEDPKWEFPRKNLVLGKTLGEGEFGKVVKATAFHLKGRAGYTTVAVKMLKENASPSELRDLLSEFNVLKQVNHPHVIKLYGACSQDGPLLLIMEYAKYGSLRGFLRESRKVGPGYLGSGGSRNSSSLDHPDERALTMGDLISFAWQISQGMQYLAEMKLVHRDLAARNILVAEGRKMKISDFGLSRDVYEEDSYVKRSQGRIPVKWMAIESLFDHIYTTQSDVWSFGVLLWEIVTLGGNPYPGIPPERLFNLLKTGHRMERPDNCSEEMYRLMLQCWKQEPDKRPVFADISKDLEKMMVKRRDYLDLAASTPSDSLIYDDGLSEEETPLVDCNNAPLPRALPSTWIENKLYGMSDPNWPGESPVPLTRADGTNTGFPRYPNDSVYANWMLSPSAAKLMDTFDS

off-target kinases (Homo sapiens, UniProt Q8N4C8), sequence (Q8N4C8 whole entry): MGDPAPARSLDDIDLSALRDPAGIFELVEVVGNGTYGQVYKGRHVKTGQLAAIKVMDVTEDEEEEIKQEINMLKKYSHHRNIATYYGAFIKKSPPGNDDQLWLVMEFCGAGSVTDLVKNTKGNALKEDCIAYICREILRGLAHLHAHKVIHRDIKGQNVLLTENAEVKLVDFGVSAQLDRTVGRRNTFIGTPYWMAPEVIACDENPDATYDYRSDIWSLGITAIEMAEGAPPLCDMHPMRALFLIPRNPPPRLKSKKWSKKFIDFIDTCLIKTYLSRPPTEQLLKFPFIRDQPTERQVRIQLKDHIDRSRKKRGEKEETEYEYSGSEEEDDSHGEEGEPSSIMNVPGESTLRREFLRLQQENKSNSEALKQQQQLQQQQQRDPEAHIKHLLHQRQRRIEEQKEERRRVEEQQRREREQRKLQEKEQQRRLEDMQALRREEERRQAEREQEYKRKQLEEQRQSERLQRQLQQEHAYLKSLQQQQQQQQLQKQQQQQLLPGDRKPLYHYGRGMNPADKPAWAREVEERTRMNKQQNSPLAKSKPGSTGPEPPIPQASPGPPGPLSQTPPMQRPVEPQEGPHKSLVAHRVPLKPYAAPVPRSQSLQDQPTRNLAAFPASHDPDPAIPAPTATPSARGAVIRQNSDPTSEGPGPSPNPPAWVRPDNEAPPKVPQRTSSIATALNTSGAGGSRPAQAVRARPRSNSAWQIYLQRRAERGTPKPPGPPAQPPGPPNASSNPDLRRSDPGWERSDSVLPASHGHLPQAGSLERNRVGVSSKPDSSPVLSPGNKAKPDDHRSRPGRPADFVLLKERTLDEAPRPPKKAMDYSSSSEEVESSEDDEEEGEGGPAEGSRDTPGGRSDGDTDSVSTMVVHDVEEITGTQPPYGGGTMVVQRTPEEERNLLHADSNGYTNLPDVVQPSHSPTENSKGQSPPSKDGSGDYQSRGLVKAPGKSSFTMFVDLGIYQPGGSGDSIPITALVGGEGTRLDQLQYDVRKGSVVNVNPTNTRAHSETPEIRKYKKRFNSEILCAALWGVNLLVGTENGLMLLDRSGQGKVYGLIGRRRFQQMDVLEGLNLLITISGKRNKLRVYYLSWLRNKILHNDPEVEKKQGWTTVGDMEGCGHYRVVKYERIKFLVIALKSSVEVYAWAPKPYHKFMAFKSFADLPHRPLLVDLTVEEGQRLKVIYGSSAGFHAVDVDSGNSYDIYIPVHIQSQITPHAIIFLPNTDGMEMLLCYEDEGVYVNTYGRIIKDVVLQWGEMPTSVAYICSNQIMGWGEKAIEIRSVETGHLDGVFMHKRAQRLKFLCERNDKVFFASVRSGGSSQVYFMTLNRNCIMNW
off-target kinases (Homo sapiens, UniProt P07949, M918T), sequence (P07949 29-1114 M918T): as the sequence (P07949 29-1114 V804M) above, with M776V, M890T counted along it
off-target kinases (Homo sapiens, UniProt O60674), sequence (O60674 whole entry): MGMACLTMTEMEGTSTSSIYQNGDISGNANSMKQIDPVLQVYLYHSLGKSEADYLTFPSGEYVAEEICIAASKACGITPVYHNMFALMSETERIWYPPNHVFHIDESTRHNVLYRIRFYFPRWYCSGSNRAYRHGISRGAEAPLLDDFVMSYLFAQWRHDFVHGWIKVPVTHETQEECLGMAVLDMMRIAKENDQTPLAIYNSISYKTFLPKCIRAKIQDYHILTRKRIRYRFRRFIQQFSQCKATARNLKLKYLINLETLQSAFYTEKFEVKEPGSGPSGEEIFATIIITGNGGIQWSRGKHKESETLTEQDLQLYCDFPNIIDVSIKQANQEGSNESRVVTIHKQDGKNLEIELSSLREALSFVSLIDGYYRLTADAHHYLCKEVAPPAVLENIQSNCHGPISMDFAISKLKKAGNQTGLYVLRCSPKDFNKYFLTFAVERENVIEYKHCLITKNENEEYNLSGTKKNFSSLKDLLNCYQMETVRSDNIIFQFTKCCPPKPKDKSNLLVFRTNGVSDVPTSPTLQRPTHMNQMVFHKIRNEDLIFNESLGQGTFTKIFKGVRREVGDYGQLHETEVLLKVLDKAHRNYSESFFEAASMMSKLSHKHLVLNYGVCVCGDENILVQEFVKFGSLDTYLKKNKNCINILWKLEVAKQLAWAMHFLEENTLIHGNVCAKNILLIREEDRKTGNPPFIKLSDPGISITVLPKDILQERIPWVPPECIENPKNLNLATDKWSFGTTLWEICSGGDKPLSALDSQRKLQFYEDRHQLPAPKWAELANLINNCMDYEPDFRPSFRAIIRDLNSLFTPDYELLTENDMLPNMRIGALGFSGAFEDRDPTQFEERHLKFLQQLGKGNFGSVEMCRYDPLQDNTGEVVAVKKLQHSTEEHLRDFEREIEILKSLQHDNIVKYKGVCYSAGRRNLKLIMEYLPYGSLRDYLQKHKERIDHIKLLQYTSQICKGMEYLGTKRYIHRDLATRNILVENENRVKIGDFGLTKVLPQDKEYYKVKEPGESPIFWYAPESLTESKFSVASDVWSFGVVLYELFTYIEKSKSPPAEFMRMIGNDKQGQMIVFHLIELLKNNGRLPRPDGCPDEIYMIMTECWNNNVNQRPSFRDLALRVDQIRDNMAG

## N#Cc1cc(-c2ncnc(Nc3ccc(N4CCN(C5COC5)CC4)cc3)n2)ccc1OC1CCOCC1 [Compound 1, 5-(4-((4-(4-(oxetan-3-yl)piperazin-1-yl)phenyl)amino)-1,3,5-triazin-2-yl)-2-((tetrahydro-2H-pyran-4-yl)oxy)benzonitrile]
[1]; read-out: % Inhibition 1
  inhibition: 100%
[1]; read-out: % Inhibition 2
  inhibition: 95%
[1]; read-out: % Inhibition Avg
  inhibition: 98%
[2]; read-out: % Inhibition 1
  inhibition: 10%
[2]; read-out: % Inhibition 2
  inhibition: 13%
[2]; read-out: % Inhibition Avg
  inhibition: 12%
[3]; read-out: % Inhibition 1
  inhibition: 66%
[3]; read-out: % Inhibition 2
  inhibition: 70%
[3]; read-out: % Inhibition Avg
  inhibition: 68%
[4]; read-out: % Inhibition 1
  inhibition: 23%
[4]; read-out: % Inhibition 2
  inhibition: 23%
[4]; read-out: % Inhibition Avg
  inhibition: 23%
[5]; JAK2, read-out: % Inhibition 1
  inhibition: 67%
[5]; JAK2, read-out: % Inhibition 2
  inhibition: 68%
[5]; JAK2, read-out: % Inhibition Avg
  inhibition: 67%
[5]; JAK2 JH1 JH2, read-out: % Inhibition 1
  inhibition: 46%
[5]; JAK2 JH1 JH2, read-out: % Inhibition 2
  inhibition: 47%
[5]; JAK2 JH1 JH2, read-out: % Inhibition Avg
  inhibition: 46%
[6]; read-out: % Inhibition 1
  inhibition: 35%
[6]; read-out: % Inhibition 2
  inhibition: 31%
[6]; read-out: % Inhibition Avg
  inhibition: 33%
